Results as given in EP0024616A1, “1-(3'-Acyloxyphenyl)-2-aminoethanols, their acid addition salts, pharmaceutical compositions containing them and process for their preparation” (Klinge Pharma GmbH, priority 1979, dated 1981).
Converted amounts (≈) assume the structure as drawn. Where a name gives a salt, the structure may show the parent alone.

System: Blutdruck der Katze
Assay: Blood pressure increasing effect after intraduodenal application in anaesthetised cats
Format: in vivo, Katzen
Conditions: Felis catus; 0.3 mg/kg intraduodenal, aqueous solution, anaesthetised cat; read-out: Diastol. Blutdruck (Anstieg)
Experimental: An 2-4 kg schweren, männlichen und weiblichen, narkotisierten Katzen [Chloralose (70 mg/kg) und Urethan 25 proz. (200 mg/kg)i.p.] wurden die Substanzen in wäßriger Lösung intraduodenal appliziert. Der Anstieg des systolischen und des diastolischen Blutdruckes wird in Prozenten des Ausgangswertes angegeben. N bedeutet Anzahl der Versuchstiere pro Versuch.

| SMILES | change in vivo at 0.3 mg/kg [%] |
| --- | --- |
| CCCCC(=O)Oc1cccc(C(O)CN)c1 (stereo not shown) [Verbindung 5] | 19 ± 11 |
| Cc1ccc(C(=O)Oc2cccc(C(O)CN)c2)cc1 (stereo not shown) [Verbindung 20, 1-[3'-(4'-Methylbenzoyloxy)phenyl]-2-aminoethanol-hydrochlorid] | 17 ± 10 |

Same assay, conditions: Felis catus; 0.3 mg/kg intraduodenal, aqueous solution, anaesthetised cat; read-out: Systol. Blutdruck (Anstieg)

| SMILES | change in vivo at 0.3 mg/kg [%] |
| --- | --- |
| CCCCC(=O)Oc1cccc(C(O)CN)c1 (stereo not shown) [Verbindung 5] | 20 ± 10 |
| Cc1ccc(C(=O)Oc2cccc(C(O)CN)c2)cc1 (stereo not shown) [Verbindung 20, 1-[3'-(4'-Methylbenzoyloxy)phenyl]-2-aminoethanol-hydrochlorid] | 20 ± 10 |

Same assay, conditions: Felis catus; 1 mg/kg intraduodenal, aqueous solution, anaesthetised cat; read-out: Diastol. Blutdruck (Anstieg)

| SMILES | change in vivo at 1 mg/kg [%] |
| --- | --- |
| CC(=O)Oc1cccc(C(O)CN)c1.Cl (stereo not shown) [Verbindung 1, 1-(3'-Acetoxyphenyl)-2-aminoethanol-hydrochlorid] | 20 ± 10 |
| CCCCC(=O)Oc1cccc(C(O)CN)c1 (stereo not shown) [Verbindung 5] | 31 ± 8 |
| CC(C)(C)C(=O)Oc1cccc(C(O)CN)c1.Cl (stereo not shown) [Verbindung 7, 1-(3'-Pivaloyloxyphenyl)-2-aminoethanol-hydrochlorid] | 17 ± 6 |
| CCC(CC)C(=O)Oc1cccc(C(O)CN)c1 (stereo not shown) [Verbindung 10] | 19 ± 3 |
| CCCCCCC(=O)Oc1cccc(C(O)CN)c1.Cl (stereo not shown) [Verbindung 12, 1-(3'-Heptanoyloxyphenyl)-2-aminoethanol-hydrochlorid] | 17 ± 7 |
| CCCCCCCCCCCC(=O)Oc1cccc(C(O)CN)c1 (stereo not shown) [Verbindung 14] | 16 ± 4 |
| NCC(O)c1cccc(OC(=O)Cc2ccccc2)c1 (stereo not shown) [Verbindung 15] | 20 ± 4 |
| CC(C(=O)Oc1cccc(C(O)CN)c1)c1ccccc1 (stereo not shown) [Verbindung 16] | 10 ± 3 |
| CCC(C(=O)Oc1cccc(C(O)CN)c1)c1ccccc1 (stereo not shown) [Verbindung 17] | 25 ± 7 |
| Cc1ccccc1C(=O)Oc1cccc(C(O)CN)c1 (stereo not shown) [Verbindung 19] | 15 ± 7 |
| Cc1ccc(C(=O)Oc2cccc(C(O)CN)c2)cc1 (stereo not shown) [Verbindung 20, 1-[3'-(4'-Methylbenzoyloxy)phenyl]-2-aminoethanol-hydrochlorid] | 26 ± 6 |

Same assay, conditions: Felis catus; 1 mg/kg intraduodenal, aqueous solution, anaesthetised cat; read-out: Systol. Blutdruck (Anstieg)

| SMILES | change in vivo at 1 mg/kg [%] |
| --- | --- |
| CC(=O)Oc1cccc(C(O)CN)c1.Cl (stereo not shown) [Verbindung 1, 1-(3'-Acetoxyphenyl)-2-aminoethanol-hydrochlorid] | 27 ± 10 |
| CCCCC(=O)Oc1cccc(C(O)CN)c1 (stereo not shown) [Verbindung 5] | 33 ± 7 |
| CC(C)(C)C(=O)Oc1cccc(C(O)CN)c1.Cl (stereo not shown) [Verbindung 7, 1-(3'-Pivaloyloxyphenyl)-2-aminoethanol-hydrochlorid] | 17 ± 7 |
| CCC(CC)C(=O)Oc1cccc(C(O)CN)c1 (stereo not shown) [Verbindung 10] | 25 ± 5 |
| CCCCCCC(=O)Oc1cccc(C(O)CN)c1.Cl (stereo not shown) [Verbindung 12, 1-(3'-Heptanoyloxyphenyl)-2-aminoethanol-hydrochlorid] | 21 ± 8 |
| CCCCCCCCCCCC(=O)Oc1cccc(C(O)CN)c1 (stereo not shown) [Verbindung 14] | 23 ± 6 |
| NCC(O)c1cccc(OC(=O)Cc2ccccc2)c1 (stereo not shown) [Verbindung 15] | 24 ± 3 |
| CC(C(=O)Oc1cccc(C(O)CN)c1)c1ccccc1 (stereo not shown) [Verbindung 16] | 20 ± 7 |
| CCC(C(=O)Oc1cccc(C(O)CN)c1)c1ccccc1 (stereo not shown) [Verbindung 17] | 29 ± 7 |
| Cc1ccccc1C(=O)Oc1cccc(C(O)CN)c1 (stereo not shown) [Verbindung 19] | 17 ± 5 |
| Cc1ccc(C(=O)Oc2cccc(C(O)CN)c2)cc1 (stereo not shown) [Verbindung 20, 1-[3'-(4'-Methylbenzoyloxy)phenyl]-2-aminoethanol-hydrochlorid] | 28 ± 6 |

Same assay, conditions: Felis catus; 3 mg/kg intraduodenal, aqueous solution, anaesthetised cat; read-out: Diastol. Blutdruck (Anstieg)

| SMILES | change in vivo at 3 mg/kg [%] |
| --- | --- |
| NCC(O)c1cccc(O)c1 (racemic) [Norfenefrin, DL-1-(3'-Hydroxyphenyl)-2-aminoethanol, reference compound] | 18 ± 6 |
| CC(=O)Oc1cccc(C(O)CN)c1.Cl (stereo not shown) [Verbindung 1, 1-(3'-Acetoxyphenyl)-2-aminoethanol-hydrochlorid] | 29 ± 6 |
| CCCCC(=O)Oc1cccc(C(O)CN)c1 (stereo not shown) [Verbindung 5] | 29 ± 8 |
| CC(C)(C)C(=O)Oc1cccc(C(O)CN)c1.Cl (stereo not shown) [Verbindung 7, 1-(3'-Pivaloyloxyphenyl)-2-aminoethanol-hydrochlorid] | 29 ± 5 |
| CCC(CC)C(=O)Oc1cccc(C(O)CN)c1 (stereo not shown) [Verbindung 10] | 48 ± 11 |
| CCCCCCC(=O)Oc1cccc(C(O)CN)c1.Cl (stereo not shown) [Verbindung 12, 1-(3'-Heptanoyloxyphenyl)-2-aminoethanol-hydrochlorid] | 65 ± 17 |
| CCCCCCCCCCCC(=O)Oc1cccc(C(O)CN)c1 (stereo not shown) [Verbindung 14] | 25 ± 8 |
| NCC(O)c1cccc(OC(=O)Cc2ccccc2)c1 (stereo not shown) [Verbindung 15] | 36 ± 11 |
| CC(C(=O)Oc1cccc(C(O)CN)c1)c1ccccc1 (stereo not shown) [Verbindung 16] | 31 ± 8 |
| CCC(C(=O)Oc1cccc(C(O)CN)c1)c1ccccc1 (stereo not shown) [Verbindung 17] | 31 ± 6 |
| Cc1ccccc1C(=O)Oc1cccc(C(O)CN)c1 (stereo not shown) [Verbindung 19] | 21 ± 6 |
| Cc1ccc(C(=O)Oc2cccc(C(O)CN)c2)cc1 (stereo not shown) [Verbindung 20, 1-[3'-(4'-Methylbenzoyloxy)phenyl]-2-aminoethanol-hydrochlorid] | 100 ± 24 |

Same assay, conditions: Felis catus; 3 mg/kg intraduodenal, aqueous solution, anaesthetised cat; read-out: Systol. Blutdruck (Anstieg)

| SMILES | change in vivo at 3 mg/kg [%] |
| --- | --- |
| NCC(O)c1cccc(O)c1 (racemic) [Norfenefrin, DL-1-(3'-Hydroxyphenyl)-2-aminoethanol, reference compound] | 25 ± 9 |
| CC(=O)Oc1cccc(C(O)CN)c1.Cl (stereo not shown) [Verbindung 1, 1-(3'-Acetoxyphenyl)-2-aminoethanol-hydrochlorid] | 35 ± 8 |
| CCCCC(=O)Oc1cccc(C(O)CN)c1 (stereo not shown) [Verbindung 5] | 42 ± 10 |
| CC(C)(C)C(=O)Oc1cccc(C(O)CN)c1.Cl (stereo not shown) [Verbindung 7, 1-(3'-Pivaloyloxyphenyl)-2-aminoethanol-hydrochlorid] | 37 ± 6 |
| CCC(CC)C(=O)Oc1cccc(C(O)CN)c1 (stereo not shown) [Verbindung 10] | 48 ± 11 |
| CCCCCCC(=O)Oc1cccc(C(O)CN)c1.Cl (stereo not shown) [Verbindung 12, 1-(3'-Heptanoyloxyphenyl)-2-aminoethanol-hydrochlorid] | 70 ± 14 |
| CCCCCCCCCCCC(=O)Oc1cccc(C(O)CN)c1 (stereo not shown) [Verbindung 14] | 39 ± 9 |
| NCC(O)c1cccc(OC(=O)Cc2ccccc2)c1 (stereo not shown) [Verbindung 15] | 50 ± 11 |
| CC(C(=O)Oc1cccc(C(O)CN)c1)c1ccccc1 (stereo not shown) [Verbindung 16] | 38 ± 12 |
| CCC(C(=O)Oc1cccc(C(O)CN)c1)c1ccccc1 (stereo not shown) [Verbindung 17] | 42 ± 9 |
| Cc1ccccc1C(=O)Oc1cccc(C(O)CN)c1 (stereo not shown) [Verbindung 19] | 26 ± 7 |
| Cc1ccc(C(=O)Oc2cccc(C(O)CN)c2)cc1 (stereo not shown) [Verbindung 20, 1-[3'-(4'-Methylbenzoyloxy)phenyl]-2-aminoethanol-hydrochlorid] | 122 ± 25 |

Same assay, conditions: Felis catus; 10 mg/kg intraduodenal, aqueous solution, anaesthetised cat; read-out: Diastol. Blutdruck (Anstieg)

| SMILES | change in vivo at 10 mg/kg [%] |
| --- | --- |
| NCC(O)c1cccc(O)c1 (racemic) [Norfenefrin, DL-1-(3'-Hydroxyphenyl)-2-aminoethanol, reference compound] | 25 ± 5 |
| CC(=O)Oc1cccc(C(O)CN)c1.Cl (stereo not shown) [Verbindung 1, 1-(3'-Acetoxyphenyl)-2-aminoethanol-hydrochlorid] | 48 ± 8 |
| CC(C)(C)C(=O)Oc1cccc(C(O)CN)c1.Cl (stereo not shown) [Verbindung 7, 1-(3'-Pivaloyloxyphenyl)-2-aminoethanol-hydrochlorid] | 74 ± 13 |
| CCC(CC)C(=O)Oc1cccc(C(O)CN)c1 (stereo not shown) [Verbindung 10] | 89 ± 14 |
| CCCCCCC(=O)Oc1cccc(C(O)CN)c1.Cl (stereo not shown) [Verbindung 12, 1-(3'-Heptanoyloxyphenyl)-2-aminoethanol-hydrochlorid] | 51 ± 11 |
| CCCCCCCCCCCC(=O)Oc1cccc(C(O)CN)c1 (stereo not shown) [Verbindung 14] | 90 ± 25 |
| NCC(O)c1cccc(OC(=O)Cc2ccccc2)c1 (stereo not shown) [Verbindung 15] | 81 ± 15 |
| CC(C(=O)Oc1cccc(C(O)CN)c1)c1ccccc1 (stereo not shown) [Verbindung 16] | 55 ± 13 |
| CCC(C(=O)Oc1cccc(C(O)CN)c1)c1ccccc1 (stereo not shown) [Verbindung 17] | 38 ± 6 |
| Cc1ccccc1C(=O)Oc1cccc(C(O)CN)c1 (stereo not shown) [Verbindung 19] | 32 ± 11 |

Same assay, conditions: Felis catus; 10 mg/kg intraduodenal, aqueous solution, anaesthetised cat; read-out: Systol. Blutdruck (Anstieg)

| SMILES | change in vivo at 10 mg/kg [%] |
| --- | --- |
| NCC(O)c1cccc(O)c1 (racemic) [Norfenefrin, DL-1-(3'-Hydroxyphenyl)-2-aminoethanol, reference compound] | 34 ± 7 |
| CC(=O)Oc1cccc(C(O)CN)c1.Cl (stereo not shown) [Verbindung 1, 1-(3'-Acetoxyphenyl)-2-aminoethanol-hydrochlorid] | 59 ± 6 |
| CC(C)(C)C(=O)Oc1cccc(C(O)CN)c1.Cl (stereo not shown) [Verbindung 7, 1-(3'-Pivaloyloxyphenyl)-2-aminoethanol-hydrochlorid] | 79 ± 8 |
| CCC(CC)C(=O)Oc1cccc(C(O)CN)c1 (stereo not shown) [Verbindung 10] | 85 ± 11 |
| CCCCCCC(=O)Oc1cccc(C(O)CN)c1.Cl (stereo not shown) [Verbindung 12, 1-(3'-Heptanoyloxyphenyl)-2-aminoethanol-hydrochlorid] | 61 ± 10 |
| CCCCCCCCCCCC(=O)Oc1cccc(C(O)CN)c1 (stereo not shown) [Verbindung 14] | 87 ± 15 |
| NCC(O)c1cccc(OC(=O)Cc2ccccc2)c1 (stereo not shown) [Verbindung 15] | 88 ± 15 |
| CC(C(=O)Oc1cccc(C(O)CN)c1)c1ccccc1 (stereo not shown) [Verbindung 16] | 63 ± 9 |
| CCC(C(=O)Oc1cccc(C(O)CN)c1)c1ccccc1 (stereo not shown) [Verbindung 17] | 47 ± 10 |
| Cc1ccccc1C(=O)Oc1cccc(C(O)CN)c1 (stereo not shown) [Verbindung 19] | 37 ± 7 |

Same assay, conditions: Felis catus; 30 mg/kg intraduodenal, aqueous solution, anaesthetised cat; read-out: Diastol. Blutdruck (Anstieg)

| SMILES | change in vivo at 30 mg/kg [%] |
| --- | --- |
| NCC(O)c1cccc(O)c1 (racemic) [Norfenefrin, DL-1-(3'-Hydroxyphenyl)-2-aminoethanol, reference compound] | 37 ± 9 |

Same assay, conditions: Felis catus; 30 mg/kg intraduodenal, aqueous solution, anaesthetised cat; read-out: Systol. Blutdruck (Anstieg)

| SMILES | change in vivo at 30 mg/kg [%] |
| --- | --- |
| NCC(O)c1cccc(O)c1 (racemic) [Norfenefrin, DL-1-(3'-Hydroxyphenyl)-2-aminoethanol, reference compound] | 41 ± 7 |

System: Blutdruck
Assay: not given
Conditions: oral; from the literature (E. Muschöll 1967); cited from earlier work

| SMILES | orale Wirksamkeit |
| --- | --- |
| NCC(O)c1cccc(O)c1 (racemic) [Norfenefrin, DL-1-(3'-Hydroxyphenyl)-2-aminoethanol, reference compound] | geringe orale Wirksamkeit |

System: not listed separately
Assay: Minimum solubility in water
Conditions: Tab. 1; minimum solubility (lower bound) of the salts in water

| SMILES | Mindestlöslichkeit in Wasser [%] |
| --- | --- |
| CC(=O)Oc1cccc(C(O)CN)c1.Cl (stereo not shown) [Verbindung 1, 1-(3'-Acetoxyphenyl)-2-aminoethanol-hydrochlorid] | 50 |
| CCC(=O)Oc1cccc(C(O)CN)c1 (stereo not shown) [Verbindung 2] | 50 |
| CCCCC(=O)Oc1cccc(C(O)CN)c1 (stereo not shown) [Verbindung 5] | 50 |
| CC(C)(C)C(=O)Oc1cccc(C(O)CN)c1.Cl (stereo not shown) [Verbindung 7, 1-(3'-Pivaloyloxyphenyl)-2-aminoethanol-hydrochlorid] | 50 |
| CCC(CC)C(=O)Oc1cccc(C(O)CN)c1 (stereo not shown) [Verbindung 10] | 50 |
| CCCCCCC(=O)Oc1cccc(C(O)CN)c1.Cl (stereo not shown) [Verbindung 12, 1-(3'-Heptanoyloxyphenyl)-2-aminoethanol-hydrochlorid] | 50 |
| NCC(O)c1cccc(OC(=O)Cc2ccccc2)c1 (stereo not shown) [Verbindung 15] | 50 |
| CC(C(=O)Oc1cccc(C(O)CN)c1)c1ccccc1 (stereo not shown) [Verbindung 16] | 50 |
| Cc1ccccc1C(=O)Oc1cccc(C(O)CN)c1 (stereo not shown) [Verbindung 19] | 50 |
| Cc1ccc(C(=O)Oc2cccc(C(O)CN)c2)cc1 (stereo not shown) [Verbindung 20, 1-[3'-(4'-Methylbenzoyloxy)phenyl]-2-aminoethanol-hydrochlorid] | 50 |

Same assay, conditions: water

| SMILES | solubility [mg/mL] |
| --- | --- |
| CCCCCCCCCCCC(=O)Oc1cccc(C(O)CN)c1 (stereo not shown) [Verbindung 14] | 150 (≈ 447 mM) |
| CCC(C(=O)Oc1cccc(C(O)CN)c1)c1ccccc1 (stereo not shown) [Verbindung 17] | 200 (≈ 668 mM) |
